Assay results from patent US20100069668A1, “5-[(2R)-[2-[2-(2,2,2-TRIFLUOROETHOXY)PHENOXY]ETHYL]AMINO]PROPYL]-2-METHOXYBENZENESULFONAMIDE” (priority 2006, published 2010).
Where a name gives a salt, the structure may show the parent alone.

How the values were obtained:
α1 receptor [1] = test: antagonism of norepinephrine-induced contraction of isolated aorta smooth muscle; assay type: cell-based; conditions: isolated rat aorta
Protocol: (§1) The antagonism and antagonistic selectivity of α1 receptor of different isolated smooth muscle specimens treated with the compound having formula (I).
(§2) Methods: a 24-hour fasting rat was hit on the head to induce coma, and quickly dissected the abdominal cavity, its urethra, aorta and vas deferens were respectively taken out and recorded the contraction curve with instruments, then the different concentrations and volumes of norepinephrine were added to get noradrenalin's accumulation curve, rinsed immediately to return to baseline, then different concentrations of test drugs were added. Noradrenaline was added repeatedly after 5˜8 minute to obtain average contractile response curve of noradrenalin under different concentrations of antagonist, the contraction pD2 of noradrenaline on the urethra, aorta, vas deferens under different concentrations of samples for test was calculated, the pA2 value for antagonism of contraction caused by the samples against norepinephrine was obtain by regressing with the concentration of test samples and pD2.
(§3) Results: pA2 value for the contraction of the different organizations inhibition of smooth muscle specimens induced by the hydrochlorate of compound I and tamsulosin hydrochloride against norepinephrine is shown in Table 1. […]

α1 receptor [2] = test: antagonism of norepinephrine-induced contraction of isolated urethra smooth muscle; assay type: cell-based, rat; conditions: for pA2 for antagonism of norepinephrine-induced contraction, urethra: isolated rat urethra; for the intensity ratio of the contraction caused by inhibiting norepinephrine, urethra/aorta / the intensity ratio of the contraction caused by inhibiting norepinephrine, urethra/vas deferens: calculated by pA2 value
Protocol: as §1, §2
Results: pA2 value for the contraction of the different organizations inhibition of smooth muscle specimens induced by the hydrochlorate of compound I and tamsulosin hydrochloride against norepinephrine is shown in Table 1. The intensity ratio of contraction inhibitive effect of urethra and aorta, urethra and vas deferens smooth muscle, caused by the sample against noradrenaline is disclosed in table 2, which is calculated by pA2 value.

α1 receptor [3] = test: antagonism of norepinephrine-induced contraction of isolated vas deferens smooth muscle; assay type: cell-based; conditions: isolated rat vas deferens
Protocol: as §1, §2, §3

| Structure (SMILES) | pA2 value for the contraction caused by inhibiting norepinephrine, aorta (α1 receptor [1]) | pA2 for antagonism of norepinephrine-induced contraction, urethra (α1 receptor [2]) | the intensity ratio of the contraction caused by inhibiting norepinephrine, urethra/aorta (α1 receptor [2]) | the intensity ratio of the contraction caused by inhibiting norepinephrine, urethra/vas deferens (α1 receptor [2]) | pA2 value for the contraction caused by inhibiting norepinephrine, vas deferens (α1 receptor [3]) |
| --- | --- | --- | --- | --- | --- |
| COc1ccc(C[C@@H](C)NCCOc2ccccc2OCC(F)(F)F)cc1S(N)(=O)=O [the hydrochlorate of compound I, 5-[(2R)-[2-[2-[2-(2,2,2-trifluoroethoxy)phenoxy]ethyl]amino]propyl]-2-methoxybenzenesulfonamide] | 8.21 | 11.00 | 607.31 | 8.120 | 10.08 |
| CCOc1ccccc1OCCN[C@H](C)Cc1ccc(OC)c(S(N)(=O)=O)c1 [Tamsulosin hydrochloride] | 8.63 | 9.22 | 3.83 | 0.123 | 10.12 |
